From patent US8921582B2, “Oligo- and polyfurans, preparation and uses thereof” (Yeda Research and Development Co. Ltd., priority 2009, dated 2014)
≈ marks a conversion by molar mass, not a printed value. Read-outs that look alike come from different tables or passages of the source. Each block holds one compound with its values, some of them ahead of it.

Assays:
[1] = Thermogravimetric analysis (TGA) / stability in air; format: physicochemical; conditions: stable in air in the absence of light, FIG. 3
Procedure: FIG. 3 depicts Thermogravimetric Analysis (TGA) of oligofurans (a) 5F-8F and (b) 9F under N2, rate: 5° C./min.
FIG. 11 depicts thermogravimetric analysis (TGA) of oligofurans 6F, 8F and DH-6F under N2. Rate: 5° C./min.

[2] = Solubility of oligofurans in organic solvent; format: physicochemical; conditions: for solubility: in chloroform (solvent stated)

decomposition temperature [1]: 303 °C | solubility of 6F relative to corresponding 6T ([2]; in chloroform): over 10 times | solubility ([2]; organic solvent or mixture, read-out: solubility): 700 µg/mL (≈ 1760 µM)
SMILES: c1coc(-c2ccc(-c3ccc(-c4ccc(-c5ccc(-c6ccco6)o5)o4)o3)o2)c1 [6F, α-sexifuran]

solubility [2]: < 50 µg/mL
SMILES: c1csc(-c2ccc(-c3ccc(-c4ccc(-c5ccc(-c6cccs6)s5)s4)s3)s2)c1 [6T, α-sexithiophene, reference compound]

solubility in warm acetone ([2]; warm acetone, Soxhlet extraction): slightly soluble
SMILES: c1coc(-c2ccc(-c3ccc(-c4ccc(-c5ccc(-c6ccc(-c7ccc(-c8ccc(-c9ccco9)o8)o7)o6)o5)o4)o3)o2)c1 [9F, α-nonafuran]
